Results: ChEMBL document CHEMBL1141804, “Cytotoxic sesquiterpene lactones from Vernonia pachyclada from the Madagascar rainforest” (J Nat Prod, 2005)
*1 amine or outer side, *2 acyl side, *3 side chain or, on linkers, in order; H or OH if unused. Where a SMILES comes first, the peptide text is derived from it. Bridges are numbered along the chain shown (N, C = ends). Roman numbers before positions name the chains, in order. [ ]: non-standard residue; d: D form. Actinocin(1to9) = Cc1c2oc3c(C)ccc(C(=O)[*:2])c3nc-2c(C(=O)[*:1])c(N)c1=O; NMeV = CN[C@H](C(=O)O)C(C)C; Sar = CNCC(=O)O

test system: A2780; test: Cytotoxicity against human A2780 cells; type: functional, cell-based

**Q.** For Cc1c2oc3c(C)ccc(C(=O)N[C@@H]4C(=O)N[C@H](C(C)C)C(=O)N5CCC[C@H]5C(=O)N(C)CC(=O)N(C)[C@@H](C(C)C)C(=O)O[C@@H]4C)c3nc-2c(C(=O)N[C@@H]2C(=O)N[C@H](C(C)C)C(=O)N3CCC[C@H]3C(=O)N(C)CC(=O)N(C)[C@@H](C(C)C)C(=O)O[C@@H]2C)c(N)c1=O [DACTINOMYCIN] (I: T[dV]P[Sar][NMeV] / II: T[dV]P[Sar][NMeV]; ester I:1-I:C, II:1-II:C; linker I:N-II:N via Actinocin(1to9)), which IC50 is on record?
**A.** The IC50 was 0.0008 µM.

**Q.** Which IC50 does the source give for C=C(C)C(=O)O[C@H]1C[C@H](C)[C@@H](OC(C)=O)CC[C@@]2(C)O[C@@H]2[C@H]2OC(=O)C(COC(C)=O)=C12 [GLAUCOLIDE K] here?
**A.** The IC50 was 5.8 µM.

**Q.** C=C(C)C(=O)O[C@H]1C[C@H](C)[C@@H](OC(C)=O)CC[C@@]2(C)O[C@@H]2[C@H]2OC(=O)C(CO)=C12 [GLAUCOLIDE L] was tested. Which IC50 did it give?
**A.** Its IC50 is 24.5 µM.

**Q.** With C=C(C)C(=O)O[C@H]1C[C@H](C)[C@@H](OC(C)=O)CC[C@@](C)(O)/C=C2/OC(=O)C(COC(C)=O)=C21 [GLAUCOLIDE M] as the compound, how does the IC50 read?
**A.** Its IC50 is 3.3 µM.
